The assay has as its system spiral strips of rabbit aorta. The experiment in a line: Reduction of calcium-induced contraction of K+-depolarised rabbit aorta spiral strips. The format is cell-based. The settings on record: for IC50: Oryctolagus cuniculus, molar concentration required to reduce the contractile response by 50%, 35 mM potassium, 2 mM calcium ion. As to the method:
The test is performed by mounting spiral strips of rabbit aorta with one end fixed and the other attached to a force transducer. The mounted tissue is immersed in a physiological salt solution containing potassium ion at a concentration of 35 millimole and no calcium. Calcium chloride is added to the bath to give a final calcium ion concentration of 2 millimole. The change in tension caused by the resulting contraction of the tissue is noted. The bath is drained and replaced with fresh salt solution and, 45 minutes later the test is repeated with the addition of the compound being tested in the presence of salt solution and, […] The concentration of compound required to reduce the response by 50% is recorded. The anti-hypertensive activity of the compounds is also evaluated oral administration by measuring the decrease fall in blood pressure in spontaneously hypertensive rats.

Each structure is given as a SMILES string.

Take `COC(=O)C1=C(C)NC(C)=C(C(=O)OCSC)C1c1cccc([N+](=O)[O-])c1` (stereo not drawn) [Example 1, 2,6-dimethyl-4-(3'-nitrophenyl)-1,4-dihydropyridine-3,5-dicarboxylic acid 3-methylthiomethyl ester 5-methyl ester]: the IC50 was determined as 4 nM. For the same compound, the “activity ranking in words (the smaller the concentration, the more active)” value (ranking by IC50 in Table 1) is given as “most active compound”.

Consider `CCOC(=O)C1=C(C)NC(C)=C(C(=O)OCSC)C1c1cccc([N+](=O)[O-])c1` (stereo not drawn) [Example 2], for which the IC50 was found to be 20 nM.

For the compound `CSCOC(=O)C1=C(C)NC(C)=C(C(=O)OC(C)C)C1c1cccc([N+](=O)[O-])c1` (stereo not drawn) [Example 3], the IC50 is 56 nM.

On to `CCSCOC(=O)C1=C(C)NC(C)=C(C(=O)OC)C1c1cccc([N+](=O)[O-])c1` (stereo not drawn) [Example 4], for which the IC50 was 17 nM.

As to `COC(=O)C1=C(C)NC(C)=C(C(=O)OCSC)C1c1cccc(Cl)c1Cl` (stereo not drawn) [Example 5], the IC50 is 29 nM.

On to `COC(=O)C1=C(C)NC(C)=C(C(=O)OCSC)C1c1ccccc1C(F)(F)F` (stereo not drawn) [Example 6], for which the IC50 was determined as 19 nM.

In the case of `COCOC(=O)C1=C(C)NC(C)=C(C(=O)OC)C1c1cccc([N+](=O)[O-])c1` (stereo not drawn) [Example 7], the IC50 came to 42 nM.

As for `COCOC(=O)C1=C(C)NC(C)=C(C(=O)OC(C)C)C1c1cccc([N+](=O)[O-])c1` (stereo not drawn) [Example 8], the IC50 is 26 nM.

`CCOCOC(=O)C1=C(C)NC(C)=C(C(=O)OC)C1c1cccc([N+](=O)[O-])c1` (stereo not drawn) [Example 9]: the IC50 was found to be 29 nM.

Consider `COCOC(=O)C1=C(C)NC(C)=C(C(=O)OC)C1c1cccc(Cl)c1Cl` (stereo not drawn) [Example 10], for which the IC50 amounted to 20 nM.

Regarding `COC(=O)C1=C(C)NC(C)=C(C(=O)OCSC)C1c1cccc2nonc12` (stereo not drawn) [Example 11], the IC50 was 80 nM.

For `COC(=O)C1=C(C)NC(C)=C(C(=O)OCSC)C1c1ccccc1[N+](=O)[O-]` (stereo not drawn) [Example 12], the IC50 is 11 nM.

Consider `COC(=O)C1=C(C)NC(C)=C(C(=O)OCSc2ccccc2)C1c1cccc([N+](=O)[O-])c1` (stereo not drawn) [Example 13, 2,6-dimethyl-4-(3-nitrophenyl)-1,4-dihydropyridine-3,5-dicarboxylic acid 3-phenylthiomethyl, 5-methylester], for which the IC50 worked out at 142 nM.

Turning to `COC(=O)C1=C(C)NC(C)=C(C(=O)OCCN(C)Cc2ccccc2)C1c1cccc([N+](=O)[O-])c1` (stereo not drawn) [control, Nicardipine, reference compound], the IC50 was found to be 35 nM.

In general, IC50 refers to the point on the concentration scale where inhibition reaches its midpoint.

These data come from patent US5089624A, “Dihydropyridine derivatives” (Yuhan Corporation, priority 1988, dated 1992).
